Laboratory results from patent publication US20060223782A1, “2-Methylene-19-nor-(23S)-25-dehydro-1alpha-hydroxyvitamin D3-26,23-lactone and 2-methylene-19-nor-(23R)-25-dehydro-1alpha-hydroxyvitamin D3-26,23-lactone” (Wisconsin Alumni Research Foundation, priority 2005, published 2006).

What was measured:
Sprague-Dawley rats [1] = test: Bone calcium mobilization (serum calcium); format: in vivo, rat; conditions: four consecutive ip doses, even at 2,340 pmol/day, FIG. 6
Description: (§1) Male, weanling Sprague-Dawley rats were placed on Diet 11 (Suda et al. J. Nutr. 100:1049, 1970) (0.47% Ca) diet+vitamins AEK for one week followed by Diet 11 (0.02% Ca)+AEK for 3 weeks. The rats were then switched to a diet containing 0.47% Ca for one week followed by two weeks on a diet containing 0.02% Ca. Dose administration began during the last week on 0.02% calcium diet. Four consecutive ip doses were given approximately 24 hours apart. Twenty-four hours after the last dose, blood was collected from the severed neck and the concentration of serum calcium determined as a measure of bone calcium mobilization. The first 10 cm of the intestine was also collected for intestinal calcium transport analysis using the everted gut sac method. Antagonism was tested by administering a combination of 1,25(OH)2D3 and the compound to the animal simultaneously.

[2] = molecular target: T1, full-length recombinant rat vitamin D receptor (Rattus norvegicus, UniProt P13053); test: Vitamin D receptor competitive binding with [3H]-1,25-(OH)2-D3; conditions: competition with [3H]-1,25-(OH)2-D3; FIG. 1
T1 construct: Full-length recombinant rat vitamin D receptor was expressed in E. coli; histidine tag (C); made in house; host or cells: E. coli BL21(DE3) Codon Plus RIL
T1 sequence (P13053 1-423): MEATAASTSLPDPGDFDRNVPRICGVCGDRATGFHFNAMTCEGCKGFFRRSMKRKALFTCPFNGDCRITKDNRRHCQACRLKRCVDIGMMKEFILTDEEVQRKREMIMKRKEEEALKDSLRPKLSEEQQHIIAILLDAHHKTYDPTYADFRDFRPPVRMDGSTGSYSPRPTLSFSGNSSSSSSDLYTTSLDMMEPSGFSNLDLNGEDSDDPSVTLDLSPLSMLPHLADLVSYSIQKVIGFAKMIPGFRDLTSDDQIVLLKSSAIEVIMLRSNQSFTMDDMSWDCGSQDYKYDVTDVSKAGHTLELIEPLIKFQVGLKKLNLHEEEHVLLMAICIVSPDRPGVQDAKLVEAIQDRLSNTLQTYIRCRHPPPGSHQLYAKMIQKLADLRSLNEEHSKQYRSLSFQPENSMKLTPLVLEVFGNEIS
Description: The first system was a nickel affinity resin that utilizes the C-terminal histidine tag on this protein. The protein that was eluted from this resin was further purified using ion exchange chromatography (S-Sepharose Fast Flow). Aliquots of the purified protein were quick frozen in liquid nitrogen and stored at −80° C. until use. For use in binding assays, the protein was diluted in TEDK50 (50 mM Tris, 1.5 mM EDTA, pH 7.4, 5 mM DTT, 150 mM KCl) with 0.1% Chaps detergent. The receptor protein and ligand concentration was optimized such that no more than 20% of the added radiolabeled ligand was bound to the receptor.
Radiolabeled and unlabeled ligands were added to 100 mcl of the diluted protein at a final ethanol concentration of ≦10%, mixed and incubated overnight on ice to reach binding equilibrium. The following day, 100 mcl of hydroxylapatite slurry (50%) was added to each tube and mixed at 10-minute intervals for 30 minutes. The hydroxylapaptite was collected by centrifugation and then washed three times with Tris-EDTA buffer (50 mM Tris, 1.5 mM EDTA, pH 7.4) containing 0.5% Titron X-100. After the final wash, the pellets were transferred to scintillation vials containing 4 mL of Biosafe II scintillation cocktail, mixed and placed in a scintillation counter. Total binding was determined from the tubes containing only radiolabeled ligand.

Sprague-Dawley rats [3] = test: Intestinal calcium transport (everted gut sac method); format: in vivo, rat; conditions: four consecutive ip doses, FIG. 7
Description: as §1

[4] = test system: 24-hydroxylase (24OHase) gene promoter in ROS 17/2.8 (bone) cells; test: In vitro transcription assay, antagonism of 1,25(OH)2D3 (24OHase promoter-luciferase); format: cell-based; conditions: combination with 1,25(OH)2D3 in the same well; FIGS. 3-5
Description: Transcription activity was measured in ROS 17/2.8 (bone) cells that were stably transfected with a 24-hydroxylase (24OHase) gene promoter upstream of a luciferase reporter gene (Arbour et al., 1998). Cells were given a range of doses. Sixteen hours after dosing the cells were harvested and luciferase activities were measured using a luminometer. RLU=relative luciferase units.
Antagonism was tested by adding a combination of 1,25(OH)2D3 and the compound in the same well keeping the final ethanol concentration the same.

HL-60 cells = test: HL-60 differentiation (nitro blue tetrazolium reduction); format: cell-based, human; conditions: FIG. 2
Description: The study drugs were dissolved in ethanol and the concentrations determined using UV spectrophotometry. Serial dilutions were prepared so that a range of drug concentrations could be tested without changing the final concentration of ethanol (≦0.2%) present in the cell cultures.
Human promyelocyiic leukemia (HL60) cells were grown in RPMI-1640 medium containing 10% fetal bovine serum. The cells were incubated at 37° C. in the presence of 5% CO2.
HL60 cells were plated at 1.2×10^5 cells/mL. Eighteen hours after plating, cells in duplicate were treated with drug. Four days later, the cells were harvested and a nitro blue tetrazolium reduction assay was performed (Collins et al., 1979; J. Exp. Med. 149:969-974). The percentage of differentiated cells was determined by counting a total of 200 cells and recording the number that contained intracellular black-blue formazan deposits. Verification of differentiation to monocytic cells was determined by measuring phagocytic activity (data not shown).

## C=C1C[C@H](C[C@@H](C)C2CC[C@H]3/C(=C/C=C4C[C@@H](O)C(=C)[C@H](O)C4)CCC[C@]23C)OC1=O (stereo partly drawn) [HLV, 2-methylene-19-nor-(23S)-25-dehydro-1α-hydroxyvitamin D3-26,23-lactone]
Sprague-Dawley rats [1]
  calcemic activity measured by bone calcium mobilization: no calcemic activity
[2]
  binding to the vitamin D receptor relative to 1α,25-dihydroxyvitamin D3: less active
Sprague-Dawley rats [3]
  intestinal calcium transport: retain the ability to elevate intestinal calcium transport
[4]
  antagonistic activity when administered along with 1α,25-dihydroxyvitamin D3 (transcription): antagonistic activity to an even greater extent
HL-60 cells
  activity in inducing differentiation of HL-60 cells relative to 1,25-(OH)2D3: less activity than 1,25-(OH)2D3

## C=C1C[C@@H](C[C@@H](C)C2CC[C@H]3/C(=C/C=C4C[C@@H](O)C(=C)[C@H](O)C4)CCC[C@]23C)OC1=O (stereo partly drawn) [GC-3, 2-methylene-19-nor-(23R)-25-dehydro-1α-hydroxyvitamin D3-26,23-lactone]
Sprague-Dawley rats [1]
  calcemic activity measured by bone calcium mobilization: no calcemic activity
[2]
  binding to the vitamin D receptor relative to 1α,25-dihydroxyvitamin D3: less active
Sprague-Dawley rats [3]
  intestinal calcium transport: retain the ability to elevate intestinal calcium transport
[4]
  antagonistic activity when administered along with 1α,25-dihydroxyvitamin D3 (transcription): shows antagonistic activity
HL-60 cells
  activity in inducing differentiation of HL-60 cells relative to 1,25-(OH)2D3: less activity than 1,25-(OH)2D3
